Legend:
[1] = tested on: αvβ3; details: cited from earlier work
[2] = tested on: αvβ5; details: cited from earlier work
[3] = tested on: SW480 ITGB6 high cells; experiment: Long-term cytotoxicity, SW480 ITGB6 high; format: cell-based, human; details: SW480 versus SW480 ITGB6 high, Figure S7

Substance | αvβ3 integrin targeting (in words) [1] | αvβ5 integrin targeting (in words) [2] | effect of ITGB6 transfection on sensitivity [3]
c(RGDfK) | target αvβ3 and αvβ5 integrins | target αvβ3 and αvβ5 integrins | –
cilengitide (RGDFV; chains of the INN, looked up) | – | – | ITGB6 transfection did not impact on the sensitivity

— article PMC6122585 (Bioconjugate chemistry, 2017)
